Data on seven compounds can be found in patent US4327026A, “Benzodiazepine derivatives” (Hoffmann-La Roche Inc., priority 1980, dated 1982).

Bounds are passed on as bounds.

A short description of data set [1]: Acute toxicity, single oral administration to mice. To be noted: mouse, in vivo, single oral administration (p.o.). From the text: (§1) The following Table contains results obtained in the previously described experiment with representative compounds of formula I. In this Table there are given for each of the compounds in question the dosage administered (in mg/kg p.o.) as well as the percentage variation in the urine volume, the sodium excretion and the potassium excretion in comparison with the control animals (i.e. in comparison with the animals treated only with aldosterone). Moreover, the Table contains data concerning the acute toxicity of the compounds investigated (LD 50 in mg/kg in the case of single oral administration to mice).

Another data set has as its system aldosterone. As to the kind of experiment: Aldosterone-antagonistic activity in adrenalectomised rats (urine volume, sodium and potassium excretion). It is filed as in vivo, Female Holtzmann rats. To be noted: for Volume (urine volume) in %, based on control animals / [K+] (potassium excretion) in %, based on control animals / [Na+] (sodium excretion) in %, based on control animals: 1 mg/kg p.o., 30 min before aldosterone s.c., urine collected 3 hours, vs animals treated only with aldosterone. The method, then:
If compounds of formula I are administered to the animals before the treatment with aldosterone, then there is observed, in comparison to animals which are treated only with aldosterone (control animals), a pronounced increase of the sodium excretion (i.e. the sodium retention caused by aldosterone is antagonised), whereas the potassium excretion and the urine volume are influenced to a lesser extent.
The standard experiment is carried out as follows:
Female Holtzmann rats (150-180 g) are bilaterally adrenalectomised 70 to 74 hours before the beginning of the experiment. After the operation, the animals receive a customary rat dry feed and 0.9% sodium chloride solution for drinking. 16-17 hours before the beginning of the experiment the feed is removed from the animals, but they can subsequently drink, as before, 0.9% sodium chloride solution ad libitum. At the beginning of the experiment the substance to be tested as an aldosterone-antagonist is administered to the animals by means of a stomach probe. 30 minutes later the animals receive a subcutaneous injection of […] of aldosterone. After a further 90 minutes, the urinary bladders of the animals are emptied by careful suprapubic pressure, whereupon the animals are placed individually in metabolic cages without food and without drink. The urine of the animals is then collected for 3 hours, whereupon their urinary bladders are once more emptied. The spontaneously excreted urine and the remaining urine obtained at the conclusion of the experiment by pressing-out the urinary bladders are collected in graduated centrifuge glasses. Sodium and potassium concentrations in the urine are determined with a flame photometer.
as §1

Broadly, the LD50 is the dose expected to kill half of the subjects tested. The low end stands for a more toxic substance, the high end for a less toxic substance.

`CCN1C(=O)CNC(c2ccccc2F)c2cc(C(C)N(C)C)ccc21` (stereo not drawn) [Example 7a, 7-[1-(dimethylamino)ethyl]-1-ethyl-5-(o-fluorophenyl)-1,3,4,5-tetrahydro-2H-1,4-benzodiazepin-2-one]: in data set [1], the 50% lethal dose (LD50) was found to be 500 mg/kg. Moreover, in the data set on aldosterone, the “Volume (urine volume) in %, based on control animals” value (shortened to “Volume (urine volume) in %, based”) amounted to 147%; the “[K+] (potassium excretion) in %, based on control animals” value (“[K+] (potassium excretion) in %, based” for short) is 90%; the “[Na+] (sodium excretion) in %, based on control animals” value (“[Na+] (sodium excretion) in %, based” for short) was found to be 252%.
The like results for `CCN1C(=O)CNC(c2ccccc2F)c2cc(C(C)=NO)ccc21` (stereo not drawn) [Example 5] were, in that order, over 5000 mg/kg, 157%, 87% and 247%.
In data set [1], `CCN1C(=O)CN=C(c2ccccc2F)c2cc(C(C)OCOC)ccc21` (stereo not drawn) [Example 9a, 1-ethyl-5-(o-fluorophenyl)-1,3-dihydro-7-[1-(methoxymethoxy)ethyl]-2H-1,4-benzodiazepin-2-one] showed a 50% lethal dose (LD50) of 500 mg/kg. Moreover, in the data set with aldosterone, the “Volume (urine volume) in %, based” value came out at 138%; the “[K+] (potassium excretion) in %, based” value worked out at 93%; the “[Na+] (sodium excretion) in %, based” value is 359%.
Take `C[C@]12CCC(=O)C=C1CC[C@@H]1[C@@H]2[C@@H](O)C[C@]2(C=O)[C@@H](C(=O)CO)CC[C@@H]12` [aldosterone, reference compound]: in the data set on aldosterone (vs untreated animals, in words), the “excreted urine volume after aldosterone” value is given as “reduction of the excreted urine volume”, the “potassium excretion after aldosterone” value was “increased potassium excretion” and the “sodium excretion after aldosterone” value is given as “pronounced reduction of the sodium excretion”.
In turn, `CN1C(=O)CN=C(c2ccccc2)c2cc(CNC(=O)NCCO)ccc21` [Example 22, 1-[(2,3-dihydro-1-methyl-2-oxo-5-phenyl-1H-1,4-benzodiazepin-7-yl)methyl]-3-(2-hydroxyethyl)urea] registered an LD50 in data set [1] of over 5000 mg/kg. In the data set on aldosterone, the “Volume (urine volume) in %, based” value is given as 130%; the “[K+] (potassium excretion) in %, based” value is 82%; the “[Na+] (sodium excretion) in %, based” value came out at 224%.
The like results for `CCN1C(=O)CNC(c2ccccc2F)c2cc(C(C)NCCO)ccc21` (stereo not drawn) [Example 6, 1-ethyl-5-(o-fluorophenyl)-1,3,4,5-tetrahydro-7-/1-[(2-hydroxyethyl)-amino]ethyl/-2H-1,4-benzodiazepin-2-one] were, in that order, 4000 mg/kg, 150%, 93% and 306%.
The corresponding values for `CC1N=C(c2ccccc2F)c2cc(C(C)N)ccc2N(C)C1=O` (stereo not drawn) [Example 2, 7-(1-aminoethyl)-5-(o-fluorophenyl)-1,3-dihydro-1,3-dimethyl-2H-1,4-benzodiazepin-2-one] are 625 mg/kg, 169%, 102% and 298%.
